Assay results taken from patent US20210353579A1, “HIGH PENETRATION COMPOSITIONS AND USES THEREOF” (Techfields Pharma Co., Ltd., priority 2006, published 2021).

How the values were obtained:
[1] = Plasma levels after transdermal administration to hairless mice; type: in vivo; conditions: mouse, in vivo
Procedure: Tested compounds (20% solution or suspension in 1 mL isopropanol) are administered transdermally to the skin of intact hairless mice. The plasma levels of the parent compounds are determined by HPLC.

[2] = system: mice; assay: Analgesic activity, D'Amour-Smith method (tail heat, pain threshold); type: in vivo; conditions: 200 mg/kg transdermally vs 200 mg/kg diflunisal orally
Procedure: After the tested compounds are administered (the dosages for each test compounds are specified in FIG. 3, prodrug compounds are administered orally and transdermally respectively in different groups, while parent compounds are administered orally) to a group of mice (six mice every group), the tails of mice are exposed to heat and the prolongation time of pain threshold is determined. […] The prodrug compounds show similar analgesic activities when the same dosages are administered orally or transdermally. (FIG. 3)

[3] = system: mice; assay: Analgesic activity, acetic acid writhing; type: in vivo; conditions: 30 min before acetic acid
Procedure: The prodrug compounds are administered either transdermally or orally. The parent compounds are administered orally. The number of writhing that occurred when mice are administered the acetic acid solution are counted, and the rate of inhibition based on the control group which was not pretreated with any test compounds is calculated. […] The A group is the control group.

[4] = system: rats; assay: Antipyretic activity, E. coli suspension as pyrogen; type: in vivo; conditions: in °C (unit assumed)
Procedure: Rats are administered with sterilized E. coli suspension as a pyrogen. Each group of rats are administered with a prodrug compounds or parent compounds at a dosage specified below. The prodrug compounds are administered either orally or transdermally. The parent compounds are administered orally.

[5] = system: rats (SLAC/GK, type 2 diabetes); assay: Blood glucose in type 2 diabetes rats, transdermal; type: in vivo, rat; conditions: diabetic rats (SLAC/GK); for Blood glucose, Average: average second to fifth week, no fasting, equal to 20 mg/kg of NSAIAs once per day for 5 weeks; for Blood glucose, Baseline: equal to 20 mg/kg of NSAIAs once per day
Source text: (§1) HPPs lower blood glucose level in rat models (SLAC/GK, type 2 diabetes, n=7). 50% acetone solution of diethylaminoethyl acetylsalicylate.acetylsalicylic acid salt (P-1, in acetone); 4-acetamidophenyl salicylyldimethylaminobutyrate.HCl (P-6), diethylaminoethyl 5-(2,4-difluorophenyl) acetylsalicylate.5-(2,4-difluorophenyl).acetylsalicylic acid salt (P-8), diethylaminoethyl salicylsalicylate.AcOH (P-9), diethylaminoethyl salicylate.AcOH (P-10), diethylaminoethyl 5-acetamido-acetylsalicylate (P-58), diethylaminoethyl acetylsalicylsalicylate.acetylsalicylsalicylic acid salt (P-59), diethylaminoethyl acetylsalicylsalicylate.acetylsalicylsalicylsalicylic acid salt (P-60) (equal to of 20 mg/kg of NSAIAs) are administered transdermally to the backs (about 1.5 cm^2) of rats (fur was shaved) once per day (at 8 am) for 5 weeks. The blood glucose levels are measured once every 3 days at 3 pm (no fasting) from the second week to the fifth week (Table 24). The blood lipid levels are measured at the end of the fifth week (Table 25).

[6] = system: rats (SLAC/GK, type 2 diabetes); assay: Blood lipid in type 2 diabetes rats, transdermal; type: in vivo, rat; conditions: for Cholesterol (HDL), Baseline / Cholesterol (total), Baseline / Triglycerides, Baseline: equal to 20 mg/kg of NSAIAs; for Cholesterol (HDL), Average / Cholesterol (total), Average / Triglycerides, Average: end of the fifth week, equal to 20 mg/kg of NSAIAs once per day
Source text: as §1

[7] = system: rats (SLAC/GK, type 2 diabetes); assay: Blood glucose in type 2 diabetes rats, oral with food; type: in vivo, rat; conditions: for Blood glucose, Diabetic rats, Average: average second to fifth week, no fasting, equal to 20 mg/kg of NSAIAs every day for 5 weeks; for Blood glucose, Diabetic rats, Baseline: equal to 20 mg/kg of NSAIAs
Source text: (§2) 20% acetone solution of diethylaminoethyl acetylsalicylate.acetylsalicylic acid salt (P-1, in acetone); 4-acetamidophenyl salicylyldimethylaminobutyrate.HCl (P-6), diethylaminoethyl 5-(2,4-difluorophenyl) acetylsalicylate.5-(2,4-difluorophenyl) acetylsalicylic acid salt (P-8), diethylaminoethyl salicylsalicylate.AcOH (P-9), diethylaminoethyl salicylate.AcOH (P-10), diethylaminoethyl 5-acetamido-acetylsalicylate (P-58), diethylaminoethyl acetylsalicylsalicylate. acetylsalicylsalicylic acid salt (P-59), diethylaminoethyl acetylsalicylsalicylate. acetylsalicylsalicylsalicylic acid salt (P-60) (equal to of 20 mg/kg of NSAIAs) were mixed with food and were orally administered to the rats (SLAC/GK, type 2 diabetes, n=7) with food every day for 5 weeks. The blood glucose levels were measured once every 3 days at 3 pm (no fasting) from the second week to the fifth week. The blood lipid levels were measured at the end of the fifth week.

[8] = system: rats (SLAC/GK, type 2 diabetes); assay: Blood lipid in type 2 diabetes rats, oral with food; type: in vivo, rat; conditions: for Cholesterol (HDL), Baseline / Cholesterol (total), Baseline / Triglycerides, Baseline: equal to 20 mg/kg of NSAIAs; for Cholesterol (HDL), Average / Cholesterol (total), Average / Triglycerides, Average: end of the fifth week, equal to 20 mg/kg of NSAIAs every day
Source text: as §2

[9] = system: mice (SLAC:NOD-IDDM, type 1 diabetes); assay: Blood glucose in type 1 diabetes mice, transdermal; type: in vivo, mouse; conditions: for Blood glucose, Average: average fourth to seventh week, no fasting, equal to 30 mg/kg of NSAIAs once per day for 7 weeks; for Blood glucose, Baseline: equal to 30 mg/kg of NSAIAs
Source text: The pro-drugs in this invention lower blood glucose levels in mouse models (SLAC:NOD-IDDM, type 1 diabetes, n=7). 50% acetone solution of diethylaminoethyl acetylsalicylate.acetylsalicylic acid salt (P-1, in acetone); 4-acetamidophenyl salicylyldimethylaminobutyrate.HCl (P-6), diethylaminoethyl 5-(2,4-difluorophenyl) acetylsalicylate.5-(2,4-difluorophenyl) acetylsalicylic acid salt (P-8), diethylaminoethyl salicylsalicylate.AcOH (P-9), diethylaminoethyl salicylate.AcOH (P-10), diethylaminoethyl 5-acetamido-acetylsalicylate (P-58), diethylaminoethyl acetylsalicylsalicylate. acetylsalicylsalicylic acid salt (P-59), diethylaminoethyl acetylsalicylsalicylate. acetylsalicylsalicylsalicylic acid salt (P-60) (equal to of 30 mg/kg of NSAIAs) were administered transdermally to the backs (about 1.5 cm^2) of mice (fur was shaved) once per day (at 8 am) for 7 weeks. The blood glucose levels were measured once every 3 days at 3 pm (no fasting) from the fourth week to the seventh week.

[10] = system: normal rats; assay: Blood glucose in normal rats, transdermal; type: in vivo, rat; conditions: for Blood glucose, Average: normal rats (second Average line of Table 24), average second to fifth week, equal to 20 mg/kg of NSAIAs once per day; for Blood glucose, Baseline: normal rats (second Baseline line of Table 24), equal to 20 mg/kg of NSAIAs
Source text: as §1, with “25). […]” for “25).”

[11] = system: normal rats; assay: Blood glucose in normal rats, oral with food; type: in vivo, rat; conditions: for Blood glucose, Normal rats, Average: average second to fifth week, equal to 20 mg/kg of NSAIAs every day; for Blood glucose, Normal rats, Baseline: equal to 20 mg/kg of NSAIAs
[12] = system: human skin tissue; conditions: pH 7.4
[13] = system: rat; conditions: rats;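 further: acute toxicity in rats expressed as LD50, determined for both prodrugs and their parent compounds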
Procedure: The acute toxicity of the prodrug compounds and parent compounds are measured by LD50 of rat.

Compound	Peak plasma concentration of parent compound after prodrug compound [1] [mg/L]	t, time to peak plasma level of parent compound after prodrug compound [1] [min]	analgesic activity, prolongation time of pain threshold of mice tails [2]	% (rate of writhing inhibition) ([3]; 50 mg/kg transdermally) [%]	No. of Writhing ([3]; 50 mg/kg transdermally)	% (rate of writhing inhibition) ([3]; 100 mg/kg transdermally) [%]	No. of Writhing ([3]; 100 mg/kg transdermally)	body temperature, t = 0 min ([4]; 100 mg/kg transdermally)	body temperature, t = 90 min ([4]; 100 mg/kg transdermally)	body temperature, t = 180 min ([4]; 100 mg/kg transdermally)	body temperature, t = 270 min ([4]; 100 mg/kg transdermally)	body temperature, t = 0 min ([4]; 150 mg/kg transdermally)	body temperature, t = 90 min ([4]; 150 mg/kg transdermally)	body temperature, t = 180 min ([4]; 150 mg/kg transdermally)	body temperature, t = 270 min ([4]; 150 mg/kg transdermally)	Blood glucose, Average [5] [mmol/L]	Blood glucose, Baseline [5] [mmol/L]	Cholesterol (HDL), Baseline [6] [mmol/L]	Cholesterol (total), Baseline [6] [mmol/L]	Triglycerides, Baseline [6] [mmol/L]	also measured
CC(=O)O.CCN(CC)CCOC(=O)c1ccccc1O [diethylaminoethyl salicylate.AcOH]	40	30	stronger analgesic activity	60	14.0	66	11.9	37.28 ± 0.06	36.85 ± 0.06	36.88 ± 0.08	36.86 ± 0.07	37.26 ± 0.05	36.55 ± 0.05	36.60 ± 0.07	36.65 ± 0.05	8.2 ± 1	15.8 ± 3	1.6 ± 0.2	7.1 ± 0.5	5.6 ± 0.6	Cholesterol (HDL), Average [6]: 1.5 ± 0.1 mmol/L; Cholesterol (total), Average [6]: 4.9 ± 0.4 mmol/L; Triglycerides, Average [6]: 2.5 ± 0.2 mmol/L; Blood glucose, Diabetic rats, Average [7]: 7.8 ± 1 mmol/L; Blood glucose, Diabetic rats, Baseline [7]: 15.6 ± 3 mmol/L; Cholesterol (HDL), Baseline [8]: 1.6 ± 0.2 mmol/L; Cholesterol (total), Baseline [8]: 7.6 ± 0.5 mmol/L; Triglycerides, Baseline [8]: 5.7 ± 0.6 mmol/L; Cholesterol (HDL), Average [8]: 1.7 ± 0.1 mmol/L; Cholesterol (total), Average [8]: 5.2 ± 0.5 mmol/L; Triglycerides, Average [8]: 2.6 ± 0.2 mmol/L; Blood glucose, Average [9]: 8.2 ± 1 mmol/L; Blood glucose, Baseline [9]: 25.8 ± 3 mmol/L; Blood glucose, Average [10]: 6.9 ± 1 mmol/L; Blood glucose, Baseline [10]: 6.8 ± 1 mmol/L; Blood glucose, Normal rats, Average [11]: 6.9 ± 1 mmol/L; Blood glucose, Normal rats, Baseline [11]: 6.7 ± 1 mmol/L; In vitro penetration rate (apparent flux), prodrug compounds [12]: 60 μg/cm^2/h; LD50 of HPP [13]: 1.6 g/kg
CC(=O)O.CCN(CC)CCOC(=O)c1ccccc1OC(=O)c1ccccc1O [diethylaminoethyl salicylsalicylate.AcOH]	40	30	stronger analgesic activity	59	14.2	65	12.0	37.28 ± 0.06	36.75 ± 0.06	36.78 ± 0.08	36.80 ± 0.07	37.26 ± 0.05	36.45 ± 0.05	36.40 ± 0.07	36.50 ± 0.05	8.4 ± 1	16.5 ± 4	1.3 ± 0.1	7.7 ± 0.5	5.3 ± 0.5	Cholesterol (HDL), Average [6]: 1.4 ± 0.2 mmol/L; Cholesterol (total), Average [6]: 4.8 ± 0.4 mmol/L; Triglycerides, Average [6]: 2.4 ± 0.2 mmol/L; Blood glucose, Diabetic rats, Average [7]: 7.6 ± 1 mmol/L; Blood glucose, Diabetic rats, Baseline [7]: 16.5 ± 4 mmol/L; Cholesterol (HDL), Baseline [8]: 1.5 ± 0.1 mmol/L; Cholesterol (total), Baseline [8]: 7.9 ± 0.5 mmol/L; Triglycerides, Baseline [8]: 5.8 ± 0.6 mmol/L; Cholesterol (HDL), Average [8]: 1.4 ± 0.2 mmol/L; Cholesterol (total), Average [8]: 5.6 ± 0.4 mmol/L; Triglycerides, Average [8]: 2.7 ± 0.2 mmol/L; Blood glucose, Average [9]: 9.4 ± 1 mmol/L; Blood glucose, Baseline [9]: 26.5 ± 4 mmol/L; Blood glucose, Average [10]: 6.7 ± 1 mmol/L; Blood glucose, Baseline [10]: 6.5 ± 1 mmol/L; Blood glucose, Normal rats, Average [11]: 6.6 ± 1 mmol/L; Blood glucose, Normal rats, Baseline [11]: 6.3 ± 1 mmol/L; In vitro penetration rate (apparent flux), prodrug compounds [12]: 80 μg/cm^2/h; LD50 of HPP [13]: 2.0 g/kg
